# Legend:
# Aurora A = target: T1, Aurora A (Homo sapiens, UniProt O14965); experiment: Aurora A inhibitory action (33P-ATP Kemptide phosphorylation, filter assay); format: biochemical; conditions: His-tagged Aurora A, 100 μM Kemptide, 20 μM ATP, 30° C., 20 minutes
# T1 construct: histidine tag (N); made in house; host or cells: Escherichia coli BL21-CodonPlus(DE3)-RIL
# T1 sequence (O14965 1-403): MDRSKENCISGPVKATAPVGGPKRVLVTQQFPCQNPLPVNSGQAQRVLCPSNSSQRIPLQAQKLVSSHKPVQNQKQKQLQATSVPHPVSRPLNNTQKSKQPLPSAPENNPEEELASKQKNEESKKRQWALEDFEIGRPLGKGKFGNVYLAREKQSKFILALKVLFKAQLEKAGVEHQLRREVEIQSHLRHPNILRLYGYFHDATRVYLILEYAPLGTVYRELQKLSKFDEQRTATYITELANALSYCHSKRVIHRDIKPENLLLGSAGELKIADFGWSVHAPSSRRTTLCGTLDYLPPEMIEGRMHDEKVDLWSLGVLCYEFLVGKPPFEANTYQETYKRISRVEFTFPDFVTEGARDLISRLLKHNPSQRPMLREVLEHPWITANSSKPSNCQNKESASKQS
# Excerpt: (§1) cDNA of Aurora A having histidine tag fused at the amino terminal was integrated into an expression vector, which was then highly expressed in Escherichia coli BL21-CodonPlus(DE3)-RIL cells. The Escherichia coli cells were recovered and solubilized, and then the histidine-tagged Aurora A protein was adsorbed onto a nickel chelate column and eluted from the column with imidazole. The active fraction was desalted with a desalting column to give a pure enzyme.
# For measurement of the activity of Aurora A, the substrate used was Kemptide (Leu-Arg-Arg-Ala-Ser-Leu-Gly) (SEQ.ID.NO.: 1), a synthetic peptide purchased from Sigma-Aldrich, Inc. [Certificate of analysis (Upstate, Inc.)].
# Reaction was conducted by a partial modification of a method by Upstate, Inc. [Kinase Profiler™ Assay Protocols]. The amount of the reaction liquid was 21.1 μL, and the composition of the reaction buffer (R2 buffer) was 50 mM Tris-hydrochloride buffer (pH 7.4)/15 mM magnesium acetate/0.2 μM ethylenediamine-N,N,N′,N′-tetraacetate (EDTA). To this, purified Aurora A, 100 μM of a substrate peptide, 20 μM of unlabeled adenosine triphosphate (ATP) and 0.5 μCi of [γ-^33P] labeled ATP (2,500 Ci/mmole or more) were added, and the mixture was reacted at 30° C. for 20 minutes. Then, 10 μL of 350 mM phosphate buffer was added to the reaction system to stop the reaction. The substrate peptide was adsorbed on a P81 paper filter 96-well plate and then washed with 130 mM phosphate buffer for several times. The radiation activity of the peptide was measured with a liquid scintillation counter. The [γ-^33P] labeled ATP was purchased from Amersham Biosciences Co., Ltd.
# The compound to be tested was added to the reaction system such that a dilution series of the compound in dimethylsulfoxide was first prepared, and 1.1 μL of this solution was added. A control was provided by adding 1.1 μL of DMSO to the reaction system.
# Aurora B = target: T2, Aurora B (Homo sapiens, UniProt Q96GD4); experiment: Aurora B inhibitory action (33P-ATP Kemptide phosphorylation, filter assay); format: biochemical; conditions: His-tagged Aurora B, 100 μM Kemptide, 100 μM ATP, 30° C., 20 minutes
# T2 construct: histidine tag (N); made in house; host or cells: Escherichia coli BL21-CodonPlus(DE3)-RIL
# T2 sequence (Q96GD4 whole entry): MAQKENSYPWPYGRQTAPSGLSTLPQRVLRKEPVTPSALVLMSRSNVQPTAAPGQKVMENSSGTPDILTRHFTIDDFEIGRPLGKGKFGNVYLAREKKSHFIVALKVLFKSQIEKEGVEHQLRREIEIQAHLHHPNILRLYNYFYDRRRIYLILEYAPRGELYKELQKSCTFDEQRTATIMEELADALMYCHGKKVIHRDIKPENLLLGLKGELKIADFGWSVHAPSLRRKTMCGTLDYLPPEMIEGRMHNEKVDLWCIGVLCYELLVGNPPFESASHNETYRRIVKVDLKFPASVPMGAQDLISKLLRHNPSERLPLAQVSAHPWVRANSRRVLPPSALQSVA
# Excerpt: as §1, with “of Aurora B having histidine” for “of Aurora A having histidine”, “column with imidazole, The active” for “column with imidazole. The active”
# For measurement of the activity of Aurora B, the substrate used was Kemptide (Leu-Arg-Arg-Ala-Ser-Leu-Gly) (SEQ.ID.NO.: 1), a synthetic peptide purchased from Sigma-Aldrich, Inc, [Certificate of analysis (Upstate, Inc.)].
# Reaction was conducted by a partial modification of the method of activity measurement for Aurora A. The amount of the reaction liquid was 21.1 μL, and the composition of the reaction buffer (R2 buffer) was 50 mM Tris-hydrochloride buffer (pH 7.4)/15 mM magnesium acetate/0.2 mM ethylenediamine-N,N,N′,N′-tetraacetate (EDTA). To this, purified Aurora B, 100 μM of a substrate peptide, 100 μM of unlabeled adenosine triphosphate (ATP) and 1 μCi of [γ-^33P] labeled ATP (2,500 Ci/mmole or more) were added, and the mixture was reacted at 30° C. for 20 minutes. Then, 10 μL of 350 mM phosphate buffer was added to the reaction system to stop the reaction. The substrate peptide was adsorbed on a P81 paper filter 96-well plate and then washed with 130 mM phosphate buffer for several times. The radiation activity of the peptide was measured with a liquid scintillation counter. The [γ-^33P] labeled ATP was purchased from Amersham Biosciences Co., Ltd.
structure (smiles),measurement,setting,value
"Cc1cc(Nc2cc[nH]n2)nc(N2CC(NC(=O)O[C@@H](C)C(F)(F)F)[C@H](C)C2)n1 (stereo in doubt) [Example 7, (2S)-1,1,1-trifluoropropan-2-yl{(3R,4R)-4-methyl-1-[4-methyl-6-(1H-pyrazol-3-ylamino)pyrimidin-2-yl]pyrrolidin-3-yl}carbamate]",IC50,Aurora A,6.2 nM
same,IC50,Aurora B,310 nM
"Cc1cc(Nc2cc[nH]n2)nc(N2CC(NC(=O)OC(C)(C)C)[C@H](C)C2)n1 (stereo in doubt) [Example 9, tert-butyl {(3R,4R)-4-methyl-1-[4-methyl-6-(1H-pyrazol-3-ylamino)pyrimidin-2-yl]pyrrolidin-3-yl}carbamate]",IC50,Aurora A,75 nM
same,IC50,Aurora B,5800 nM
"Cc1cc(Nc2cc[nH]n2)nc(N2CC[C@H](NC(=O)O[C@@H](C)C(F)(F)F)C2)n1 [Example 1, (2S)-1,1,1-trifluoropropan-2-yl{(3S)-1-[4-methyl-6-(1H-pyrazol-3-ylamino)pyrimidin-2-yl]pyrrolidin-3-yl}carbamate]",IC50,Aurora A,3.6 nM
same,IC50,Aurora B,210 nM
"Cc1cc(Nc2cc[nH]n2)nc(N2C[C@@H](O)[C@H](NC(=O)O[C@@H](C)C(F)(F)F)C2)n1 [Example 2, (2S)-1,1,1-trifluoropropan-2-yl{(3R,4R)-4-hydroxy-1-[4-methyl-6-(1H-pyrazol-3-ylamino)pyrimidin-2-yl]pyrrolidin-3-yl}carbamate]",IC50,Aurora A,33 nM
same,IC50,Aurora B,2200 nM
"Cc1cc(Nc2cc(C)[nH]n2)nc(N2CC[C@H](NC(=O)O[C@@H](C)C(F)(F)F)C2)n1 [Example 3, (2S)-1,1,1-trifluoropropan-2-yl {(3S)-1-[4-methyl-6-(5-methyl-1H-pyrazol-3-ylamino)pyrimidin-2-yl]pyrrolidin-3-yl}carbamate]",IC50,Aurora A,6.4 nM
same,IC50,Aurora B,190 nM
"Cc1cc(Nc2cc[nH]n2)nc(N2CC[C@H](NC(=O)OC(C)(C)C(F)(F)F)C2)n1 [Example 4, 1,1,1-trifluoro-2-methylpropan-2-yl{(3S)-1-[4-methyl-6-(1H-pyrazol-3-ylamino)pyrimidin-2-yl]pyrrolidin-3-yl}carbamate]",IC50,Aurora A,22 nM
same,IC50,Aurora B,3800 nM
"Cc1cc(Nc2cc(C)[nH]n2)nc(N2CC[C@H](NC(=O)OC(C)(C)C)C2)n1 [Example 6, tert-butyl {(3S)-1-[4-methyl-6-(5-methyl-1H-pyrazol-3-ylamino)pyrimidin-2-yl]pyrrolidin-3-yl}carbamate]",IC50,Aurora A,28 nM
same,IC50,Aurora B,1800 nM
"CO[C@@H]1CN(c2nc(C)cc(Nc3cc[nH]n3)n2)C[C@H]1NC(=O)O[C@@H](C)C(F)(F)F [Example 8, (2S)-1,1,1-trifluoropropan-2-yl{(3R,4R)-4-methoxyl-1-[4-methyl-6-(1H-pyrazol-3-ylamino)pyrimidin-2-yl]pyrrolidin-3-yl}carbamate]",IC50,Aurora A,37 nM
same,IC50,Aurora B,> 10000 nM

# — patent publication US8492397B2, “Aminopyridine derivatives having Aurora A selective inhibitory action” (Vertex Pharmaceuticals Incorporated, priority 2009, dated 2013)
